ChEMBL document CHEMBL1154397, “Synthesis and SAR of 4-substituted-2-aminopyrimidines as novel c-Jun N-terminal kinase (JNK) inhibitors” (Bioorg Med Chem Lett, 2009)

What was measured:
[1] = biological target: Dual specificity mitogen-activated protein kinase kinase 4 (Homo sapiens, UniProt P45985); assay: Inhibition of MKK4
[2] = biological target: Protein kinase C theta type (Homo sapiens, UniProt Q04759); assay: Inhibition of PKCtheta
Liver microsomes = assay: Metabolic stability in human liver microsomes assessed as clearance; assay type: ADME, Microsome
[3] = biological target: MAP kinase-activated protein kinase 2 (Homo sapiens, UniProt P49137); assay: Inhibition of MAPKAP-K2
[4] = biological target: Glycogen synthase kinase-3 beta (Homo sapiens, UniProt P49841); assay: Inhibition of GSK3-beta
[5] = biological target: Mitogen-activated protein kinase 10 (Homo sapiens, UniProt P53779); assay: Inhibition of JNK3
[6] = biological target: Mitogen-activated protein kinase 8 (Homo sapiens, UniProt P45983); assay: Inhibition of JNK1
[7] = biological target: Mitogen-activated protein kinase 9 (Homo sapiens, UniProt P45984); assay: Inhibition of to JNK2
[8] = biological target: Cyclin-dependent kinase 2 (Homo sapiens, UniProt P24941); assay: Inhibition of CDK2/cyclinA
[9] = biological target: Inhibitor of nuclear factor kappa-B kinase subunit beta (Homo sapiens, UniProt O14920); assay: Inhibition of IKKb
[10] = biological target: Dual specificity mitogen-activated protein kinase kinase 7 (Homo sapiens, UniProt O14733); assay: Inhibition of MKK7beta
[11] = biological target: Ribosomal protein S6 kinase beta-1 (Homo sapiens, UniProt P23443); assay: Inhibition of P70s6K
[12] = biological target: Dual specificity mitogen-activated protein kinase kinase 6 (Homo sapiens, UniProt P52564); assay: Inhibition of MKK6
[13] = biological target: Mitogen-activated protein kinase 14 (Homo sapiens, UniProt Q16539); assay: Inhibition of SAPK2a
[14] = biological target: Mitogen-activated protein kinase 12 (Homo sapiens, UniProt P53778); assay: Inhibition of SAPK3
[15] = biological target: Dual specificity mitogen-activated protein kinase kinase 1 (Homo sapiens, UniProt Q02750); assay: Inhibition of MEK1
Insulin receptor = Insulin receptor (Homo sapiens, UniProt P06213); assay: Inhibition of IR
[16] = biological target: 5'-AMP-activated protein kinase catalytic subunit alpha-2 (Homo sapiens, UniProt P54646); assay: Inhibition of AMPK
[17] = biological target: Mitogen-activated protein kinase 13 (Homo sapiens, UniProt O15264); assay: Inhibition of SPAK4
[18] = biological target: Mitogen-activated protein kinase 11 (Homo sapiens) (UniProt Q15759); assay: Inhibition of SAPK2b
[19] = biological target: Voltage-gated inwardly rectifying potassium channel KCNH2 (Homo sapiens, UniProt Q12809); assay: Binding affinity to human ERG
[20] = biological target: c-Jun N-terminal kinase, JNK (Homo sapiens, UniProt P45983+P53779+P45984); assay: Inhibition of TNF-alpha-induced phosphorylation of […] in human HepG2 cells; assay type: cell-based
[21] = Permeability from apical to basolateral side of human Caco-2 cells; assay type: ADME, cell-based; settings: read-out: permeability
[22] = Permeability from basolateral to apical side of human Caco-2 cells; assay type: ADME, cell-based; settings: read-out: permeability
[23] = Metabolic stability in rat liver microsomes assessed as clearance; assay type: ADME, Microsome
[24] = Lipophilicity, log D of the compound; assay type: physicochemical; settings: octanol/water
[25] = Selectivity ratio of IC50 for p38MAPKbeta to IC50 for JNK1
[26] = Selectivity ratio of IC50 for p38MAPKgamma to IC50 for JNK1

Sequence of Mitogen-activated protein kinase 8 (P45983 whole entry): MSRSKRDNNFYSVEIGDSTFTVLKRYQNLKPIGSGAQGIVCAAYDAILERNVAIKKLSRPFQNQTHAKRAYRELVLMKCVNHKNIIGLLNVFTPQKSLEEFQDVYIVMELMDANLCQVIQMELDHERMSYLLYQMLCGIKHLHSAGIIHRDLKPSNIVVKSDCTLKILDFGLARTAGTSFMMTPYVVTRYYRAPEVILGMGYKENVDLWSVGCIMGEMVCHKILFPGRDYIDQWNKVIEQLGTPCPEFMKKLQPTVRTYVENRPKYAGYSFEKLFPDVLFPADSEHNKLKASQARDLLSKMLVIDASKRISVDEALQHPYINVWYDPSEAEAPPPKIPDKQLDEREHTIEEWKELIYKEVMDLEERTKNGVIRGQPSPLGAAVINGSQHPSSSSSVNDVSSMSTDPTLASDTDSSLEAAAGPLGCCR
Sequence of Mitogen-activated protein kinase 11 (Homo sapiens) (Q15759 whole entry, looked up): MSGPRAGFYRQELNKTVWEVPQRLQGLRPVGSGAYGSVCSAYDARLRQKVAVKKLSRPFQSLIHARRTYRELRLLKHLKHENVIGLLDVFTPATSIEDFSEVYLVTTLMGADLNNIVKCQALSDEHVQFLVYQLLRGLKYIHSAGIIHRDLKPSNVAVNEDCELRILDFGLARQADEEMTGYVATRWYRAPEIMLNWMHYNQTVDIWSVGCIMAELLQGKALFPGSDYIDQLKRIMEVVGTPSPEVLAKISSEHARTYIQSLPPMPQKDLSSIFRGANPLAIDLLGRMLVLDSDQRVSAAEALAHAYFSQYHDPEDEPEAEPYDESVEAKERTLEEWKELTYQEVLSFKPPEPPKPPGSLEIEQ
Sequence of Mitogen-activated protein kinase 13 (O15264 whole entry): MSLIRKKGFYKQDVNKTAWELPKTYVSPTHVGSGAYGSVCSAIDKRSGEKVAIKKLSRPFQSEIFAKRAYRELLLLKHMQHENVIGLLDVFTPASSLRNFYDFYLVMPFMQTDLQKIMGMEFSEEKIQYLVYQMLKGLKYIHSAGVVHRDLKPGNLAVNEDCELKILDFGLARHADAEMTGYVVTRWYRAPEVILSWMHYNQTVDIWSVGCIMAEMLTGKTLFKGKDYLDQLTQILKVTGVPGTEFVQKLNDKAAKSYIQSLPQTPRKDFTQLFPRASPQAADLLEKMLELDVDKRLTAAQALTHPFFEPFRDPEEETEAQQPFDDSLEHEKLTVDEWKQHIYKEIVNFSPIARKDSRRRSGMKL
Sequence of Inhibitor of nuclear factor kappa-B kinase subunit beta (O14920 whole entry): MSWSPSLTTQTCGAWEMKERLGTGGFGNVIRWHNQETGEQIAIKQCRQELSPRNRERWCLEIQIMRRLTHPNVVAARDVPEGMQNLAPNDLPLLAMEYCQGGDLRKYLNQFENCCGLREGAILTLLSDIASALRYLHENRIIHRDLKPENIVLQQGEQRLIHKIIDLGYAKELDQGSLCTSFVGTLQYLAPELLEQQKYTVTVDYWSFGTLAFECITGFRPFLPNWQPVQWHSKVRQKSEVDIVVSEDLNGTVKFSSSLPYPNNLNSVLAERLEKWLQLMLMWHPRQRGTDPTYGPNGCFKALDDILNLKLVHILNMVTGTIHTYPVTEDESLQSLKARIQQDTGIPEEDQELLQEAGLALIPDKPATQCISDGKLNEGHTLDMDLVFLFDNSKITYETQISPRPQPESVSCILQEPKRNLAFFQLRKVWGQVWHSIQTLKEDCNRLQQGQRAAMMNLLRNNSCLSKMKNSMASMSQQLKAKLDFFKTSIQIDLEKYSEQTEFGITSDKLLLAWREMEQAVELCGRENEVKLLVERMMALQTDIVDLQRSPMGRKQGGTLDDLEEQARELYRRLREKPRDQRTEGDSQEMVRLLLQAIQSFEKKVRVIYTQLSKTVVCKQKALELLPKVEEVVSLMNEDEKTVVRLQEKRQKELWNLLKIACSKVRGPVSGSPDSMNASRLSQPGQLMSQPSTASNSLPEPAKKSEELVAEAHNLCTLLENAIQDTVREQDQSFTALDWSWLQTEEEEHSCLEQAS
Sequence of Dual specificity mitogen-activated protein kinase kinase 1 (Q02750 whole entry): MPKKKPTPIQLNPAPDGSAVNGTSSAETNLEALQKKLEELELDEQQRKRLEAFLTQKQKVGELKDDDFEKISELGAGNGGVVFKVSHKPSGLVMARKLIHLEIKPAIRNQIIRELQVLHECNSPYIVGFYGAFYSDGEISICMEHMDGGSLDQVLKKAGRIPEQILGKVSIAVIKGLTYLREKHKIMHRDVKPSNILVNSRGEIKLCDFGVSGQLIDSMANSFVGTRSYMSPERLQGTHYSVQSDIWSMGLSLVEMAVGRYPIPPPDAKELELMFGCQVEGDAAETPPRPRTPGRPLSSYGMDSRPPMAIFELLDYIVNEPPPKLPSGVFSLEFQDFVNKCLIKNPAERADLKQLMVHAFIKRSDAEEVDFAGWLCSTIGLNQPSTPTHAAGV
Sequence of Voltage-gated inwardly rectifying potassium channel KCNH2 (Q12809 whole entry): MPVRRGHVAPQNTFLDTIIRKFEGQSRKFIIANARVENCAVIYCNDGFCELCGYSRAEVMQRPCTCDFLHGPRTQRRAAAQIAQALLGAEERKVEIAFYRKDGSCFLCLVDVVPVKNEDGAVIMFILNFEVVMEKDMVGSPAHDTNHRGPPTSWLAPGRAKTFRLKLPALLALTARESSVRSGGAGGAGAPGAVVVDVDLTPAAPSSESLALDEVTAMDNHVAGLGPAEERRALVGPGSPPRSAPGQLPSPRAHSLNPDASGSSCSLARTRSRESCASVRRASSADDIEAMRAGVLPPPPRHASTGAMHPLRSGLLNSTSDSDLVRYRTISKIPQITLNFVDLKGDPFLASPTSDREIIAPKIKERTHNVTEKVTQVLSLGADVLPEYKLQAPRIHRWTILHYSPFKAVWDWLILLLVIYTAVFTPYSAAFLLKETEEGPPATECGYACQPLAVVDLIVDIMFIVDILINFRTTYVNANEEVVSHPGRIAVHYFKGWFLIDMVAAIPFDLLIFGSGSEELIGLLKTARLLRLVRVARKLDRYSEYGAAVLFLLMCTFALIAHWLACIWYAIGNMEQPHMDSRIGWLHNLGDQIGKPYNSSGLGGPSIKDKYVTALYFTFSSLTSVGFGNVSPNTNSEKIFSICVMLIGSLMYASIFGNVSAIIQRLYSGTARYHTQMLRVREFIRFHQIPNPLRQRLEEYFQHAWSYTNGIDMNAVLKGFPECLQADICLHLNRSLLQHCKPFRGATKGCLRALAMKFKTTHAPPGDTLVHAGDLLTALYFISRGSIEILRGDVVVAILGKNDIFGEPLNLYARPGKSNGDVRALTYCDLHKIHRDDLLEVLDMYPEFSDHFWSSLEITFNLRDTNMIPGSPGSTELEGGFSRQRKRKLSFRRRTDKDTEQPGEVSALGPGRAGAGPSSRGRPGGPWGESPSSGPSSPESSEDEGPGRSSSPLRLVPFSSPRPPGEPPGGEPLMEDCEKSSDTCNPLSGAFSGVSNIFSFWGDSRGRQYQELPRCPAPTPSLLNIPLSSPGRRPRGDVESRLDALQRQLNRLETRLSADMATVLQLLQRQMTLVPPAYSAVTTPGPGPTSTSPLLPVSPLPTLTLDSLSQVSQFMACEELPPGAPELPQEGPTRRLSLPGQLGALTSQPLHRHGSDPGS
Sequence of Ribosomal protein S6 kinase beta-1 (P23443 whole entry): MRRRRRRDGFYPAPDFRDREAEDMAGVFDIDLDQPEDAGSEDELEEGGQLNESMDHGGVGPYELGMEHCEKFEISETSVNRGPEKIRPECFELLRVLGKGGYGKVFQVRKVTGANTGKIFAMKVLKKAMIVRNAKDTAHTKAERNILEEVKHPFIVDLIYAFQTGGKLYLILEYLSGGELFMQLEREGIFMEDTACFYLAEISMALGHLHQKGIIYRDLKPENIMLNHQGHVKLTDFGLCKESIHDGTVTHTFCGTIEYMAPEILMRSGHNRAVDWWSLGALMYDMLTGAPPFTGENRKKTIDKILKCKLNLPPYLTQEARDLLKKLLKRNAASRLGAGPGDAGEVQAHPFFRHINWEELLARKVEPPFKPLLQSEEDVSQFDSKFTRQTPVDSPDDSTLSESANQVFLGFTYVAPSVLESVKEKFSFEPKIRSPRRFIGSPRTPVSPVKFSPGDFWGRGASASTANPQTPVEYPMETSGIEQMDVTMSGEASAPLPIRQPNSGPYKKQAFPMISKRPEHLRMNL
Sequence of Mitogen-activated protein kinase 10 (P53779 whole entry): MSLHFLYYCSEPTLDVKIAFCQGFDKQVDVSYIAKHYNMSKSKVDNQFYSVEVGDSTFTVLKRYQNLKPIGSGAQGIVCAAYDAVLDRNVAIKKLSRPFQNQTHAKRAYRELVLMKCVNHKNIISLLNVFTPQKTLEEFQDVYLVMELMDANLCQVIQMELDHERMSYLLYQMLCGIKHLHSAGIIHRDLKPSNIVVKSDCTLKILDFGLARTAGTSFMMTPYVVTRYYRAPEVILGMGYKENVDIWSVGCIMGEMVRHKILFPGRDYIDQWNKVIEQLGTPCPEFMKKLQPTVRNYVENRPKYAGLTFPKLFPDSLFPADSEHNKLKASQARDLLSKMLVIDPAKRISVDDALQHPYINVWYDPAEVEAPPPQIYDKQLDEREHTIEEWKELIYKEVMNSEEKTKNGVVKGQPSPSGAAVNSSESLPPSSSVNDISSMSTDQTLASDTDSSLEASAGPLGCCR
Sequence of Mitogen-activated protein kinase 9 (P45984 whole entry): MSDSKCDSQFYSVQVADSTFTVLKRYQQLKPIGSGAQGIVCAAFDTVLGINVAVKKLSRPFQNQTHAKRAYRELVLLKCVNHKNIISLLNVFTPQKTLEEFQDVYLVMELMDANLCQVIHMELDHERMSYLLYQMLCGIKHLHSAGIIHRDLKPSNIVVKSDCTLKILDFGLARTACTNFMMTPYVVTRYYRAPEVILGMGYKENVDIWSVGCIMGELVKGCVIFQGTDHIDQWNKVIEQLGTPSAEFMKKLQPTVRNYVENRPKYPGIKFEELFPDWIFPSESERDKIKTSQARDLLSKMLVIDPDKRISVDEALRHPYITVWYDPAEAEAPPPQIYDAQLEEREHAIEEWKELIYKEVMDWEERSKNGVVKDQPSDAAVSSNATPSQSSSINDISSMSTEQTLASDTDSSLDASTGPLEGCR

| Structure (SMILES) | microsomal CLint (Liver microsomes) [µL/min/mg] | Ki [6] [nM] | IC50 [20] [nM] | further results |
| --- | --- | --- | --- | --- |
| CN1CCC(Nc2nccc(-c3c[nH]nc3-c3ccc(Cl)cc3)n2)CC1 | 14 | 1570 | – | Ki [19]: 1020 nM |
| Clc1ccc(-c2n[nH]cc2-c2ccnc(NC3CC3)n2)cc1 | 96 | 151 | 840 | – |
| C[C@H](CC(=O)O)Nc1nccc(-c2c[nH]nc2-c2ccc(Cl)cc2)n1 | < 6 | 315 | – | Papp A→B [21]: 0.3 ×10⁻⁶ cm/s; Papp B→A [22]: 13.2 ×10⁻⁶ cm/s |
| CC(C)Nc1nccc(-c2c[nH]nc2C2CCCOC2)n1 (configuration not stated) | 34 | 43 | 357 | microsomal CLint [23]: 18 µL/min/mg |
| CC(C)Nc1nccc(-c2cn[nH]c2C2CCCNC2)n1 (configuration not stated) | 14 | 530 | – | – |
| CC(C)Nc1nccc(-c2cn[nH]c2C2CCCCO2)n1 (configuration not stated) | 21 | 381 | 3500 | – |
| CC(C)Nc1nccc(-c2cn[nH]c2C2CCN(S(C)(=O)=O)CC2)n1 | 12 | 101 | 221 | microsomal CLint [23]: 52 µL/min/mg |
| CC(C)Nc1nccc(-c2c[nH]nc2-c2ccc(Cl)cc2)n1 | 106 | 48 | 920 | – |
| O[C@H]1CC[C@H](c2n[nH]cc2-c2ccnc(NC3CCCC3)n2)CC1 | – | – | 98 | Activity [25]: 100; Activity [26]: 100 |
| Cc1ccc(-c2n[nH]cc2-c2ccnc(NC3CCN(C)CC3)n2)cn1 | 61 | 162 | 6020 | – |
| Cc1ccnc(S)n1 | – | 2060 | – | – |
| CC(C)Nc1nccc(-c2cn[nH]c2)n1 | 21 | 2730 | – | – |
| CC(C)Nc1nccc(-c2c[nH]nc2C2CCOCC2)n1 | 18 | 169 | 814 | – |

More lines, in order of falling Ki [6], values ahead:

| microsomal CLint (Liver microsomes) [µL/min/mg] | Ki [6] [nM] | IC50 [20] [nM] | Structure (SMILES) | further results |
| --- | --- | --- | --- | --- |
| 15 | 36 | 209 | OC1CCCC(c2n[nH]cc2-c2ccnc(NC3CCCC3)n2)C1 (configuration not stated) | – |
| < 8 | 28 | 299 | CC(=O)N[C@H]1CC[C@H](c2n[nH]cc2-c2ccnc(NC3CCCC3)n2)CC1 | – |
| 156 | 27 | 1100 | Clc1ccc(-c2n[nH]cc2-c2ccnc(NC3CCCCC3)n2)cc1 | – |
| 116 | 26 | 460 | Clc1ccc(-c2n[nH]cc2-c2ccnc(NC3CCCC3)n2)cc1 | logD [24]: 4.42 |
| < 15 | 12 | – | O[C@H]1CC[C@H](c2[nH]ncc2-c2ccnc(NC3CCCC3)n2)CC1 | IC50 [1]: 920 nM; IC50 [2]: > 30000 nM; IC50 [3]: > 30000 nM; IC50 [4]: 1900 nM; Ki [5]: 16 nM; Ki [7]: 17 nM; IC50 [8]: 590 nM; IC50 [9]: 13000 nM; IC50 [10]: 860 nM; IC50 [11]: > 30000 nM; IC50 [12]: 15000 nM; IC50 [13]: > 30000 nM; IC50 [14]: 6200 nM; IC50 [15]: > 30000 nM; IC50 (Insulin receptor): > 30000 nM; IC50 [16]: > 30000 nM; IC50 [17]: 1200 nM; IC50 [18]: 15000 nM |
| 89 | 12 | 245 | c1cc(-c2cn[nH]c2C2CCCOC2)nc(NC2CCCC2)n1 (configuration not stated) | – |
| 11 | 9 | 114 | CS(=O)(=O)N[C@H]1CC[C@H](c2n[nH]cc2-c2ccnc(NC3CCCC3)n2)CC1 | – |
